From PubChem BioAssay AID720588 (Broad Institute, 2013)
Calls of active or inactive are those of the source.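 The calls were made as follows: active = fitted curve falls past a set limit of signal loss at no more than twice the top dose; inconclusive = flat fit between 30 and 70% signal loss, or poor fit; inactive = signal rise, flat within 30%, or crossing too high.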

Tested on: not listed separately
Test: ATP-based viability loss in HEK293T cells – cell-based, CellTiter-Glo luminescence, cherry-pick, set 3, cytotoxicity control, dose response (AID 720588);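 as to AC35: potency for luminescence loss meaning cytotoxic compounds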
Details: HEK293T viability, CellTiter-Glo ATP luminescence, 72 h; at 21 µM (top of the series)

Row | Compound | activity change, negative = cytotoxicity
1 | C[C@H](CO)N1C[C@H](C)[C@H](CN(C)CC2CCCCC2)Oc2ccc(NC(=O)CCCCCC(=O)Nc3ccccc3N)cc2CC1=O | 5.04% (inactive)

Same assay, conditions: HEK293T viability, CellTiter-Glo ATP luminescence, 72 h; at 23.5 µM (top of the series)

Row | Compound | activity change, negative = cytotoxicity
2 | COC(=O)C[C@@H]1CC[C@H]2[C@H](COc3ccc(NC(=O)Nc4ccc(C#N)cc4)cc3C(=O)N2C)O1 | 17.6% (inactive)
3 | COc1ccccc1NC(=O)N1[C@@H]2CNC[C@H]1[C@@H]2c1ccc(-c2ccc(C#N)cc2)cc1 | -30.3% (inactive)

Same assay, conditions: HEK293T viability, CellTiter-Glo ATP luminescence, 72 h; at 26 µM (top of the series)

Row | Compound | activity change, negative = cytotoxicity
4 | CCC1=Nc2cc(C(=O)NCC3CCCO3)ccc2Sc2ccc(Br)cc21 (stereo not drawn) | -27.1% (inactive)
5 | O=C(NC1CCCC1)C(c1ccccc1)n1c(CSCCOc2ccccc2)nc2ccccc21 (stereo not drawn) | -14.3% (inactive)
6 | COc1ccc(N=C2C(=O)Nc3ccc(C)c(Br)c32)cc1 | -21.9% (inactive)
7 | O=C(NCCc1ccccc1)c1ccccc1NC(=O)C1CCCO1 (stereo not drawn) | 5.83% (inactive)
8 | Cc1c(Cc2ccc3c(c2)OCO3)sc(NC(=O)C(C)(C)C)c1C#N | -13.7% (inactive)
9 | O=C(CNC(c1ccccc1)c1ccccc1)Nc1ccccc1-c1ccccc1 | -23.7% (inactive)
10 | CCc1ccc(/C=C2\SC(=S)N(CCCC(=O)Nc3cc(C)on3)C2=O)cc1 | -27.1% (inactive)
11 | CN(C)C(=S)N=Nc1[nH]c2ccccc2c1O | 7.38% (inactive)
12 | CC(=O)N1CCCC(c2cc(C(=O)Nc3ccccc3)no2)C1 (stereo not drawn) | -1.97% (inactive)
13 | C[C@H](CO)N1C[C@H](C)[C@H](CN(C)CC2CCCCC2)Oc2ccc(NC(=O)Nc3cccc4ccccc34)cc2C1=O | -16.8% (inactive)
14 | COc1ccc(CNc2ncc(-c3ccc(F)cc3)n2C)c2ccccc12 | -13.3% (inactive)
15 | Cc1ccc(C(=O)CN2C(=O)c3ccccc3S2(=O)=O)cc1 | -1.54% (inactive)
16 | CN1C/C(=C/c2ccsc2)C(=O)/C(=C/c2ccsc2)C1 | -30% (inactive)
17 | CCCn1nnc(NC(=S)NC(=O)C(C)(C)C)n1 | -9.98% (inactive)
18 | Nc1ccn([C@@H]2O[C@H](CO)[C@@H](O)C2O)c(=O)n1 (stereo partly drawn) | -12.5% (inactive)
19 | CC(=O)ON=C1C=CC(=C(C#N)c2ccccc2)C=C1 | -28.3% (inactive)
20 | Cc1ccc(C(CC(=O)O)Nc2nc(N3CCOCC3)nc(N3CCOCC3)n2)cc1 (stereo not drawn) | 25.6% (inactive)
21 | Cc1noc(C)c1NC(=O)Nc1ccc2c(c1)CC(=O)N([C@@H](C)CO)C[C@@H](C)[C@@H](CN(C)Cc1ccc(Cl)c(Cl)c1)O2 | 61.4% (inactive)

Row | Compound | activity change, negative = cytotoxicity
22 | Cc1cc(C(=O)CN2C(=O)c3ccccc3S2(=O)=O)c(C)n1C(C)C | 15.7% (inactive)
23 | C[C@@H]1CN([C@@H](C)CO)C(=O)c2cc(NS(=O)(=O)c3ccccc3)ccc2O[C@@H]1CN(C)Cc1ccc(C(=O)Nc2ccccc2N)cc1 | -19.2% (inactive)
24 | O=C(CCCN1C(=O)/C(=C/c2ccccc2Cl)SC1=S)NNC(=O)c1ccc(Cl)cc1Cl | 12.7% (inactive)
25 | CN(C)c1ccc2c(c1)[C@@H]1C[C@@H](CC(=O)NCc3ccc(Oc4ccccc4)cc3)O[C@H](CO)[C@@H]1O2 | -15.8% (inactive)
26 | CCOc1ccc(-c2noc(CCC(=O)O)n2)cc1 | -18.9% (inactive)
27 | COc1ccc(/C=C2\Oc3ccccc3C2=O)cc1 | 7.88% (inactive)
28 | O=C(Cc1nn[nH]n1)c1ccccc1O | 1.92% (inactive)
29 | Cc1cc(C(=O)Nc2ccc3c(c2)C(=O)N(C)[C@@H]2CC[C@H](CC(=O)N[C@H](C)c4ccccc4)O[C@H]2CO3)no1 | 8.37% (inactive)
30 | CN(C)Cc1c(O)ccc2c1O/C(=C\C=C\c1ccccc1)C2=O | -32.1% (inactive)
31 | COc1ccc(C=NNc2nc3ccccc3s2)cc1 | -21.8% (inactive)
32 | C/C=C/c1ccc(C2[C@@H]3CN(C(=O)Cc4ccccc4)C[C@H]2N3)cc1 (stereo partly drawn) | 18% (inactive)
33 | COc1ccc(/C=C2\SC(=S)N(CCCC(=O)Nc3ccc(O)cc3)C2=O)cc1 | -27.6% (inactive)
34 | COC(=O)C[C@@H]1CC[C@@H]2[C@H](COc3ccc(NC(=O)Nc4ccc(C#N)cc4)cc3C(=O)N2C)O1 | 46.8% (inactive)
35 | COc1ccc2oc(-c3ccccc3)cc(=O)c2c1 | -22.5% (inactive)
36 | COc1ccc(C(C)(O)c2nc(-c3cccc(F)c3)cs2)cc1 (stereo not drawn) | -24.1% (inactive)
37 | Cc1ccc2c(=O)n3c(nc2c1)C(Cc1ccc(O)cc1)NC(=O)c1cc2ccccc2cc1-3 (stereo not drawn) | -16.8% (inactive)
38 | C[C@H](CO)N1C[C@H](C)[C@H](CN(C)Cc2ccc(C(F)(F)F)cc2)Oc2c(NS(=O)(=O)c3ccc(Cl)cc3)cccc2C1=O | -9.18% (inactive)
39 | COc1ccc(CCC(C)NCC2CCCCC2)cc1 (stereo not drawn) | 4.78% (inactive)

Tested on: HEK293T viability, CellTiter-Glo ATP luminescence, 72 h
Test: as above
Details: not given

Row | Compound | AC35 [µM]
40 | CC(=O)OC1CC(OC2C(O)CC(OC3C(O)CC(OC4CCC5(C)C(CCC6C5CCC5(C)C(C7=CC(=O)OC7)CCC65O)C4)OC3C)OC2C)OC(C)C1OC1OC(CO)C(O)C(O)C1O (stereo not drawn) | 0.0583
41 | Nc1ccc(Oc2cccc(Oc3ccc(N)cc3)c2)cc1 | 6.82
42 | C[C@]12CC[C@H](O)C[C@H]1CC[C@@H]1[C@@H]2CC[C@]2(C)[C@@H](C3=CC(=O)OC3)CC[C@]12O | 0.629
43 | C[C@H](CO)N1C[C@H](C)[C@H](CN(C)Cc2ccc(C(=O)Nc3ccccc3N)cc2)Oc2c(cccc2N(C)C)C1=O | 11.3
44 | COC(=O)C[C@H]1CC[C@@H]2[C@H](COc3ccc(NC(=O)Nc4cccc(Cl)c4)cc3C(=O)N2C)O1 | 17.8
45 | OCC1OC(n2ccc3c2ncn2ncnc32)C(O)C1O (stereo not drawn) | 14.6
46 | CCc1cccc2c(C(=O)CN3C(=O)NC4(CCCCC4)C3=O)c[nH]c12 | 11.6
47 | CC(=O)Oc1ccc(-c2ccc(C(=O)Nc3cccc(S(=O)(=O)N4CCOCC4)c3)cc2)cc1 | 0.274
48 | C[C@@H]1CN([C@H](C)CO)C(=O)c2cc(N(C)C)ccc2O[C@H]1CN(C)Cc1ccc(C(=O)Nc2ccccc2N)cc1 | 16.5
49 | CCN1/C(=C/C(C)=C/c2sc3ccccc3[n+]2CC)Sc2ccccc21 | 0.301
50 | O=C1Nc2ccccc2C1=Nc1ccc(Br)cc1 | 14.1
51 | O=C1/C(=C\c2ccccc2)CN(C(=O)CCN2CCCCC2)C/C1=C/c1ccccc1 | 5.13
52 | COC1C(C)OC(OC2CC(C)(O)Cc3cc4c(c(O)c32)C(=O)c2c(O)cc3c(c2C4=O)OC2OC3(C)C(O)C(N(C)C)C2O)C(OC)C1(C)OC (stereo not drawn) | 0.128
53 | C=C1C(=O)O[C@@H]2[C@H]1[C@@H](OC(=O)/C(C)=C/C)C/C(C)=C\C(=O)/C=C(\C)[C@@H]2O | 7.47
54 | Cc1ccc(C(=O)O/N=C(\N)c2ccccn2)cc1 | 14.9
55 | CCCCCCCN(c1ccccc1)[C@@H]1C[C@H]2CCCC(=O)N3CC[C@@H](C1)[C@@H]23 | 13.3
56 | CCN1/C(=C/C=C/c2oc3ccc(-c4ccccc4)cc3[n+]2CC)Oc2ccc(-c3ccccc3)cc21 | 4.89
57 | Cc1ccc(C(C)C)c(OCc2ccc(C(=O)N/N=C/c3ccc(O)cc3O)cc2)c1 | 4.02
58 | Cc1ccc(C)c(S(=O)(=O)N2CCN(c3ncnc4sccc34)CC2)c1 | 4.95
59 | O=C(CCc1ccccc1)NC(c1cccs1)c1cc(Cl)c2cccnc2c1O (stereo not drawn) | 7.93
60 | CC1OC(OC2CC(O)C3(CO)C4C(O)CC5(C)C(C6=CC(=O)OC6)CCC5(O)C4CCC3(O)C2)C(O)C(O)C1O (stereo not drawn) | 0.0877
61 | C[C@H]1CN([C@@H](C)CO)S(=O)(=O)c2ccc(C#Cc3ccncc3)cc2O[C@@H]1CN(C)C(=O)Nc1ccc2c(c1)OCO2 | 2.99

Row | Compound | AC35 [µM]
62 | Cc1nc(N)nc(N)c1CCCc1ccc(Cl)c(Cl)c1 | 3.58
63 | COc1ccc(CC(N)c2csc(NC(=O)Nc3cccc(C(F)(F)F)c3)n2)cc1 (stereo not drawn) | 10.1
64 | CN1C2CCC1/C(=C/c1ccccn1)C(=O)/C2=C\c1ccccn1 | 1.1
65 | CN(C[C@H]1N[C@@H](CO)[C@@H]1c1ccc(C2=CCCC2)cc1)C(=O)c1ccc(F)cc1 | 5.64
66 | COc1ccccc1-c1ccc(OCCCN2CCC(C(O)(c3ccccc3)c3ccccc3)CC2)cc1 | 10.3
67 | CC(=O)OC1CC(OC2C(O)CC(OC3C(O)CC(OC4CCC5(C)C(CCC6C5CCC5(C)C(C7=CC(=O)OC7)C(O)CC65O)C4)OC3C)OC2C)OC(C)C1OC1OC(CO)C(O)C(O)C1O (stereo not drawn) | 0.58
68 | C=C1C(=O)OC2C1CCC(C)C1(O)C=CC(=O)C21C (stereo not drawn) | 9.94
69 | Cc1nc(N)nc(N)c1-c1ccc(Cl)c(Cl)c1 | 1.72
70 | CCCCc1c(Cc2ccccc2)ncn1CCc1ccccc1OC | 20.7
71 | CC12CCC(O)CC1CCC1C2CCC2(C)C(C3=CC(=O)OC3)CCC12O (stereo not drawn) | 0.375
72 | Cc1ccc(S(=O)(=O)Nc2ccc3c(c2)C(=O)N([C@@H](C)CO)C[C@@H](C)[C@@H](CN(C)Cc2ccc(C(=O)Nc4ccccc4N)cc2)O3)cc1 | 7.11
73 | O=C1NC(=O)N(Cc2ccc(F)cc2)C(=O)/C1=C\C=C\c1ccco1 | 13.3
74 | Cc1cccc(CN2C(=O)/C(=C\c3ccc(C(=O)NCCCN4CCN(C)CC4)cc3)Oc3ccccc32)c1 | 13.6
75 | Cc1nn(Cc2ccccc2Cl)c2sc(C(=O)Nc3ccccc3N3CCOCC3)cc12 | 15.9
76 | C=C(C(=O)c1ccccc1)C(C(=C)C(=O)c1ccccc1)c1ccc(OC)cc1 | 5.68
77 | C(=Cc1nc2ccccc2o1)c1ccc2c(c1)OCO2 | 2.47
78 | Oc1c(Cl)cc(Cl)c(Cl)c1Cc1c(O)c(Cl)cc(Cl)c1Cl | 11.4
79 | C=CCOC(=O)c1sc(NC(=O)c2ccc(OC)cc2)nc1C | 0.901
80 | C=C1C(=O)[C@@]23[C@H](O)C[C@@H]4C(C)(C)CC[C@H](O)[C@@]4(C)[C@@H]2CC[C@@H]1[C@H]3O | 6.9
81 | Nc1nc(=S)c2[nH]cnc2[nH]1 | 5.79
82 | COc1ccc(-c2ccc3c(c2)[C@H]2[C@H](CCN2S(=O)(=O)c2ccc(OC)cc2)[C@@H](CO)N3C)cc1 | 24.5
83 | C/C(=N\NC(=O)c1n[nH]c2c1CCC2)c1cccs1 | 10.8
